Source: patent US20230017045A1, “PYRIDINE AND PYRIMIDINE CARBOXYLATE HERBICIDES AND METHODS OF USE THEREOF” (Dow AgroSciences LLC, priority 2017, published 2023)
Where two headings read alike, the source gives them in different places.

Test system: test plant species
Assay: Post-emergent herbicidal activity test (greenhouse, foliar spray, visual growth reduction)
Type: in vivo
Settings: post-emergence, 336 h, 140 g ai/ha
Procedure: Post-emergent Test: Seeds or nutlets of the desired test plant species were planted in Sun Gro Metro-Mix® 360 planting mixture, which typically has a pH of 6.0 to 6.8 and an organic matter content of about 30 percent, in plastic pots with a surface area of 64 square centimeters. In some aspects, to ensure good germination and healthy plants, a fungicide treatment and/or other chemical or physical treatment was applied. The plants were grown for 7-21 d in a greenhouse with an approximate 15 h photoperiod which was maintained at 23-29° C. during the day and 22-28° C. during the night. Nutrients and water were added on a regular basis and supplemental lighting was provided with overhead metal halide 1000-Watt lamps as necessary. Plants were used for testing when they reached the first or second true leaf stage. A weighed amount, determined by the highest rate to be tested, of each test compound was placed in a 25 mL glass vial and was dissolved in 4 mL of a 97:3 v/v mixture of acetone and DMSO to obtain concentrated stock solutions. […] The concentrated stock solutions obtained were diluted with 20 mL of an aqueous mixture containing acetone, water, isopropyl alcohol, DMSO, […] crop oil concentrate, and X-77 surfactant in a 48.5:39:10:1.5:1.0:0.02 v/v ratio to obtain spray solutions containing the application rate. Compound requirements are based upon a 12 mL application volume at a rate of 187 liters per hectare (L/ha). Formulated compounds were applied to the plant material with an overhead Mandel track sprayer equipped with […] nozzles calibrated to deliver 187 L/ha over an application area of 0.64 square meters at a spray height of 18 inches (43 cm) above the average plant canopy height. Control plants were sprayed in the same manner with the solvent blank. The treated plants and control plants were placed in a greenhouse as described above and watered by subirrigation to prevent wash-off of the test compounds. After 14 d, the condition of the test plants as compared with that of the nontreated and control plants was determined visually and scored on a scale of 0 to 100 percent where 0 corresponds to no injury and 100 corresponds to complete control. In the reporting of the results, Table A: Percent Growth Reduction Conversion Table was used.

[1] = ALOMY: blackgrass (Alopecurus myosuroides), 14 days after application, read-out: Visual Growth Reduction (%) 14 Days After Application, ALOMY
[2] = AMARE: redroot pigweed (Amaranthus retroflexus), 14 days after application, read-out: Visual Growth Reduction (%) 14 Days After Application, AMARE
[3] = AVEFA: wild oat (Avena fatua), 14 days after application, read-out: Visual Growth Reduction (%) 14 Days After Application, AVEFA
[4] = CHEAL: lambsquarters (Chenopodium album), 14 days after application, read-out: Visual Growth Reduction (%) 14 Days After Application, CHEAL
[5] = CIRAR: canada thistle (Cirsium arvense), 14 days after application, read-out: Visual Growth Reduction (%) 14 Days After Application, CIRAR
[6] = CYPES: yellow nutsedge (Cyperus esculentus), 14 days after application, read-out: Visual Growth Reduction (%) 14 Days After Application, CYPES
[7] = DIGSA: crabgrass (Digitaria sanguinalis), 14 days after application, read-out: Visual Growth Reduction (%) 14 Days After Application, DIGSA
[8] = ECHCG: barnyardgrass (Echinochloa crus-galli), 14 days after application, read-out: Visual Growth Reduction (%) 14 Days After Application, ECHCG
[9] = IPOHE: ivy-leaf morning glory (Ipomoea hederacea), 14 days after application, read-out: Visual Growth Reduction (%) 14 Days After Application, IPOHE
[10] = KCHSC: kochia (Bassia scoparia), 14 days after application, read-out: Visual Growth Reduction (%) 14 Days After Application, KCHSC
[11] = ORYSA: rice (Oryza sativa), 14 days after application, read-out: Visual Growth Reduction (%) 14 Days After Application, ORYSA
[12] = SETFA: giant foxtail (Setaria faberi), 14 days after application, read-out: Visual Growth Reduction (%) 14 Days After Application, SETFA
[13] = SORVU: grain sorghum (Sorghum vulgare), 14 days after application, read-out: Visual Growth Reduction (%) 14 Days After Application, SORVU
[14] = STEME: common chickweed (Stellaria media), 14 days after application, read-out: Visual Growth Reduction (%) 14 Days After Application, STEME
[15] = TRZAS: wheat, spring (Triticum aestivum), 14 days after application, read-out: Visual Growth Reduction (%) 14 Days After Application, TRZAS
[16] = blackgrass (Alopecurus myosuroides), 14 Days After Application, read-out: Visual Growth Reduction (%) ALOMY
[17] = crabgrass (Digitaria sanguinalis), 14 Days After Application, read-out: Visual Growth Reduction (%) DIGSA
[18] = lambsquarters (Chenopodium album), 14 Days After Application, read-out: Visual Growth Reduction (%) CHEAL
[19] = redroot pigweed (Amaranthus retroflexus), 14 Days After Application, read-out: Visual Growth Reduction (%) AMARE
[20] = wild oat (Avena fatua), 14 Days After Application, read-out: Visual Growth Reduction (%) AVEFA
[21] = yellow nutsedge (Cyperus esculentus), 14 Days After Application, read-out: Visual Growth Reduction (%) CYPES

COC(=O)c1nc(-c2ccc(C(F)(F)F)cc2OC)ccc1Cl [F28, Methyl 3-chloro-6-(2-methoxy-4-(trifluoromethyl)phenyl)picolinate]
pest or weed control at 140 g/ha [1]: 0 to 29% | pest or weed control at 140 g/ha [2]: 60 to 74% | pest or weed control at 140 g/ha [3]: 0 to 29% | pest or weed control at 140 g/ha [4]: 60 to 74% | pest or weed control at 140 g/ha [5]: 75 to 84% | pest or weed control at 140 g/ha [6]: 0 to 29% | pest or weed control at 140 g/ha [7]: 45 to 59% | pest or weed control at 140 g/ha [8]: 0 to 29% | pest or weed control at 140 g/ha [9]: 95 to 100% | pest or weed control at 140 g/ha [10]: 30 to 44% | pest or weed control at 140 g/ha [11]: 0 to 29% | pest or weed control at 140 g/ha [12]: 30 to 44% | pest or weed control at 140 g/ha [13]: 75 to 84% | pest or weed control at 140 g/ha [14]: 0 to 29% | pest or weed control at 140 g/ha [15]: 0 to 29%

COC(=O)c1nc(-c2ccc3occc3c2)c(F)cc1Cl [F188, Methyl 6-(benzofuran-5-yl)-3-chloro-5-fluoropicolinate]
pest or weed control at 140 g/ha [1]: 0 to 29% | pest or weed control at 140 g/ha [2]: 0 to 29% | pest or weed control at 140 g/ha [3]: 0 to 29% | pest or weed control at 140 g/ha [4]: 60 to 74% | pest or weed control at 140 g/ha [5]: 45 to 59% | pest or weed control at 140 g/ha [6]: 0 to 29% | pest or weed control at 140 g/ha [7]: 30 to 44% | pest or weed control at 140 g/ha [8]: 0 to 29% | pest or weed control at 140 g/ha [9]: 30 to 44% | pest or weed control at 140 g/ha [10]: 0 to 29% | pest or weed control at 140 g/ha [11]: 0 to 29% | pest or weed control at 140 g/ha [12]: 0 to 29% | pest or weed control at 140 g/ha [13]: 0 to 29% | pest or weed control at 140 g/ha [14]: 0 to 29% | pest or weed control at 140 g/ha [15]: 0 to 29%

COC(=O)c1nc(-c2ccc(Cl)c(F)c2C)ccc1Cl [F298, Methyl 3-chloro-6-(4-chloro-3-fluoro-2-methylphenyl) picolinate]
pest or weed control at 140 g/ha [8]: 0 to 29% | pest or weed control at 140 g/ha [9]: 95 to 100% | pest or weed control at 140 g/ha [10]: 0 to 29% | pest or weed control at 140 g/ha [11]: 0 to 29% | pest or weed control at 140 g/ha [12]: 75 to 84% | pest or weed control at 140 g/ha [13]: 75 to 84% | pest or weed control at 140 g/ha [14]: 0 to 29% | pest or weed control at 140 g/ha [15]: 0 to 29% | pest or weed control at 140 g/ha [16]: 0 to 29% | pest or weed control at 140 g/ha (canada thistle (Cirsium arvense), 14 Days After Application, read-out: Visual Growth Reduction (%) CIRAR): 60 to 74% | pest or weed control at 140 g/ha [17]: 0 to 29% | pest or weed control at 140 g/ha [18]: 75 to 84% | pest or weed control at 140 g/ha [19]: 30 to 44% | pest or weed control at 140 g/ha [20]: 0 to 29% | pest or weed control at 140 g/ha [21]: 0 to 29%

COC(=O)c1nc(-c2ccc3ccccc3c2)c(F)cc1Cl [F340, Methyl 3-chloro-5-fluoro-6-(naphthalen-2-yl)picolinate]
pest or weed control at 140 g/ha [8]: 0 to 29% | pest or weed control at 140 g/ha [9]: 0 to 29% | pest or weed control at 140 g/ha [10]: 0 to 29% | pest or weed control at 140 g/ha [11]: 0 to 29% | pest or weed control at 140 g/ha [12]: 0 to 29% | pest or weed control at 140 g/ha [13]: 0 to 29% | pest or weed control at 140 g/ha [14]: 0 to 29% | pest or weed control at 140 g/ha [15]: 0 to 29% | pest or weed control at 140 g/ha [16]: 0 to 29% | pest or weed control at 140 g/ha [17]: 0 to 29% | pest or weed control at 140 g/ha [18]: 0 to 29% | pest or weed control at 140 g/ha [19]: 0 to 29% | pest or weed control at 140 g/ha [20]: 0 to 29% | pest or weed control at 140 g/ha [21]: 0 to 29%
